Consider 2 compounds from patent US12203938B2, “Levetiracetam immunoassays” (ARK Diagnostics, Inc., priority 2008, dated 2025).

Data set [1] deals with antibody #12019-P8. As to the kind of experiment: Specificity / crossreactivity of the immunoassay with levetiracetam metabolite. Type of data set: binding, rabbit. The note with it: for % Cross Reactivity: 100 × apparent concentration of levetiracetam / concentration of crossreactant. The source says: Antibodies obtained using any of the disclosed techniques are screened or purified not only for their ability to react with levetiracetam, but for a low cross-reactivity with potential interfering substances. “Cross-reactivity” may be determined in a quantitative immunoassay by establishing a standard curve using known dilutions of the target analyte, levetiracetam. The standard curve is then used to calculate the apparent concentration of the interfering substance present in various known amounts in samples assayed under similar condition. The cross-reactivity can be calculated as the apparent concentration divided by the actual concentration multiplied by 100. A certain immunoassay for determining cross-reactivity is a homogeneous enzyme immunoassay using a wild type G6PDH as described in U.S. Pat. No. 3,817,837 or mutant G6PDH engineered to contain a cysteine per subunit as described in U.S. Pat. Nos. 6,033,890, 6,090,567 and 6,455,288. Furthermore, the cross-reactivity can be determined in the same type of immunoassay in which the antibody will ultimately be used.
(§1) The levetiracetam derivative antibodies and enzyme conjugates may be advantageously used in a homogeneous assay format to detect levetiracetam in samples. An enzyme immunoassay or ARK Assay, which is a homogeneous enzyme immunoassay experiment, was performed to test antibodies prepared as described in Example 22. The ARK Assay for levetiracetam was conducted using a liquid, ready-to-use, two-reagent kit. A clinical chemistry analyzer useful to set up the assay is HITACHI 917. The HITACHI 917 is an automated biochemistry analyzer used by medical laboratories to process biological fluid specimens, such as urine, cerebrospinal fluid, and most commonly, blood. Manufactured by Boehringer Mannheim, the HITACHI 917 is a commonly used routine chemical chemistry. Levetiracetam containing sample was incubated with antibody reagent followed by the addition of the enzyme conjugate reagent. The enzyme conjugate activity decreases upon binding to the antibody. […] The oxidation of G6P is coupled with the reduction of NAD to NADH, which was measured at 340 nm. The change in the absorbance at 340 nm was measured spectrophotometrically. The levetiracetam concentration in a specimen was measured in terms of G6PDH activity. The increase in the rate at 340 nm was due to the formation of NADH and is proportional to the enzyme conjugate activity. An assay calibration curve was generated using levetiracetam spiked into negative calibrator matrix. The assay rate increases with increasing the concentration of drug in the sample.
The major metabolic pathway of levetiracetam (24% of dose) is an enzymatic hydrolysis of the acetamide group. The metabolites have no known pharmacological activity and are renally excreted. To human serum negative for levetiracetam was added levetiracetam dissolved in methanol to achieve a concentration of concentration of 30 μg/mL of levetiracetam (FIG. 1(1)).
To a second sample was added 2-pyrrolidone-N-butyric acid dissolved in methanol to achieve a concentration of 150.0 μg/mL 2-pyrrolidone-N-butyric acid (FIG. 1(2)). To a third sample was added 30 μg/mL of levetiracetam plus 406.4 μg/mL 2-pyrrolidone-N-butyric acid (FIG. 1(2)). The samples were assayed on the HITACHI 917. The levetiracetam metabolite, 2-pyrrolidone-N-butyric acid was tested in the immunoassay for potential crossreactivity with Enzyme Conjugate Reagent #110607-D63-E containing conjugate (44-G6PDH) and Antibody Reagent #11341P4-6-Ab containing antibody #12019-P8.

Data set [2] concerns rabbit polyclonal antibody #12019-P8. As to the kind of experiment: Homogeneous enzyme immunoassay (ARK Assay) calibration curve on HITACHI 917, conjugate (44-G6PDH). The class given is binding. As for the experimental part:
Rabbit polyclonal antibody #12019-P8 was used to measure a substantial change in enzyme activity, generate a calibration curve, and evaluate assay precision, accuracy and specificity. The antibody was added into the antibody diluent to prepare the antibody reagent. The antibody reagent consists of antibody as prepared above, buffer, stabilizers, preservatives, and the substrates for the enzyme conjugate nicotinamide adenine dinucleotide (NAM and glucose-6-phosphate. Enzyme conjugate comprising compound (44-G6PDH) G6PDH was added into the conjugate reagent to prepare the enzyme conjugate reagent. The enzyme conjugate reagent comprises the conjugate, buffer, stabilizers and preservatives. Enzyme conjugate (44-G6PDH) was used with rabbit polyclonal antibody #12019-P8 in examples below. This technique is generally applicable to produce polyclonal antibodies to levetiracetam derivatives and assess their utility.
as §1
Levetiracetam was dissolved in methanol to give a stock solution of 1000 μg/mL. Pooled human serum was aliquoted in 10 mL portions. Levetiracetam stock solution was added to the aliquots of human serum in preparing a series of known concentrations of levetiracetam calibrators ranging from 0 to 100 μg/mL. Similarly, Quality Control samples were prepared (15.0, 35.0 and 75.0 μg/mL). The antibody/substrate reagent #11341P4-6-Ab containing antibody ##12019-P8 was assayed with enzyme reagent #110607-D63-E containing conjugate (44-G6PDH). Calibration curves were generated on the HITACHI 917 automated clinical chemistry analyzer, as described in Example 23 by assaying each level in duplicate.

The conditions of data set [3]: in vivo; cited from earlier work.

For the compound 2-pyrrolidone-N-butyric acid, the “Levetiracetam Result” value in data set [1] (Concentration Tested 150.0 μg/mL in human serum) and in data set [1] (Concentration Tested 406.4 μg/mL in human serum) was 0 µg/mL each time. Also, the “% Cross Reactivity” value in data set [1] (Concentration Tested 150.0 μg/mL) and in data set [1] (Concentration Tested 406.4 μg/mL) was 0% each time. Besides, the “Crossreactivity of antibody #12019-P8 (in words)” value in data set [1] (conjugate (44-G6PDH), HITACHI 917) was “does not crossreact”.

`CC[C@@H](C(N)=O)N1CCCC1=O` (single isomer, unassigned) [Levetiracetam]: the “Reaction Rate (mA/min) Average of Duplicates” value in data set [2] (levetiracetam calibrator 5.0 μg/mL in pooled human serum) came out at 547.4 mA/min; in data set [2] (levetiracetam calibrator 10.0 μg/mL in pooled human serum) it was 561.2 mA/min; in data set [2] (levetiracetam calibrator 25.0 μg/mL in pooled human serum), 586.9 mA/min; in data set [2] (levetiracetam calibrator 50.0 μg/mL in pooled human serum), 607.5 mA/min; in data set [2] (levetiracetam calibrator 100.0 μg/mL in pooled human serum) it was 626.0 mA/min. Also, the “Levetiracetam Result” value in data set [1] (Concentration Tested 30.0 μg/mL in human serum) turned out to be 29.9 µg/mL. For the same compound, in data set [1] (Concentration Tested 30.0 μg/mL), the “% Cross Reactivity” value was 100%. Besides, the “Major metabolic pathway: enzymatic hydrolysis of the acetamide group” value in data set [3] is given as 24 % of dose.
